Laboratory results published in patent publication US20210015886A1, “COMPOSITION FOR IMPROVING MILD COGNITIVE IMPAIRMENT AND METHOD FOR IMPROVING MILD COGNITIVE IMPAIRMENT” (TOKAI BUSSAN CO., LTD., priority 2019, published 2021).

Key:
[1] = stated as known; cited from earlier work
[2] = Antioxidant activity against peroxynitrite radicals (proteolytic action on target protein, FIG. 2B); format: biochemical; conditions: prevention of degradation of target protein
From the text: FIG. 2B is a proteolytic action by a peroxynitrite radical.
(§1) Therefore, by coexisting with these antioxidants, the antioxidant effect of IMDP is retained both for hydroxyl radicals and peroxynitrite radicals.

[3] = stated as known; cited from earlier work; remark: listed apart in the source
[4] = Antioxidant activity against hydroxyl radicals (degradation of target protein, FIG. 2A); format: biochemical; conditions: prevention of degradation of target protein
From the text: FIG. 2A is a hydroxyl radical, in which 1 is untreated target protein, 2 is no antioxidant added, 3 is IMDP added, 4 is vitamin C added, 5 is ferulic acid added, 6 is IMDP+vitamin C+ferulic acid added; and
as §1

Molecule: O=C1O[C@H]([C@@H](O)CO)C(O)=C1O [vitamin C]
- antioxidant activity against peroxynitrite radicals (known) [1]: strong antioxidant activity
- antioxidant activity against peroxynitrite radicals [2]: strong antioxidant activity

Molecule: vitamin E
- antioxidant activity against hydroxyl radicals (known) [3]: strong antioxidant activity

Molecule: COc1cc(/C=C/C(=O)O)ccc1O [ferulic acid]
- antioxidant activity against hydroxyl radicals [4]: strong antioxidant activity

Molecule: CC1=C(/C=C/C(C)=C/C=C/C(C)=C/C=C/C=C(C)/C=C/C=C(C)/C=C/C2=C(C)C(=O)[C@@H](O)CC2(C)C)C(C)(C)C[C@H](O)C1=O [astaxanthin]
- antioxidant activity against hydroxyl radicals (known) [3]: strong antioxidant activity
